Reference: patent US20230285347A1, “Preterm Labour with Prostaglandin E2 Receptor Agonists” (IMPERIAL COLLEGE INNOVATIONS LIMITED, priority 2020, published 2023)

Tests used:
Type in all cases: cell-based
EP2 [1] = molecular target: T1, EP2 (Homo sapiens, UniProt P43116); test: cAMP in non-labouring myometrial cells with/without oxytocin pre-treatment; conditions: OT pre-treatment 1 hour, 100 nM; butaprost 10 μM, AH13205 10 μM, PGN9856i 100 nM; FIG. 10
T1 construct: primary human myocytes cultured from term pregnant, non-labouring, myometrium; endogenous in cells; host or cells: primary human myometrial cells (myocytes) cultured from pregnant myometrium
Procedure: Myometrial cells with/without oxytocin (OT) pre-treatment (1 hour, 100 nM) were treated with IBMX (5 minutes, 0.5 mM) before 1 minute stimulation with IBMX with/without either DMSO, butaprost (10 μM), AH13205 (10 μM) or PGN9856i (100 nM). cAMP concentrations were normalised to protein. Each patient's data normalised to butaprost response and shown as mean±SEM, n=6. One-sample t-test: #p<0.05. ##p<0.01. One-way ANOVA with Sidak's multiple comparison post-hoc test: **p<0.01.
(§1) Confluent myometrial cells were treated with/without OT (100 nM) for 1 hour before 3 PBS washes and the addition of […] IBMX (3-isobutyl-1-methylxanthine) in PBS for 5 minutes at 37° C. This was exchanged for 0.5 μM IBMX in PBS plus either DMSO, butaprost (10 μM), AH13205 (10 μM) or PGN9856i (100 nM) for […]. Cells were lysed in Cisbio cAMP lysis buffer with 0.2% TritonX-100 and centrifuged for 15 minutes at 16,000 g. Lysates were normalized to protein concentration determined by Coomassie (Bradford) Protein Assay Kit and analysed as per manufacturers' protocol (Cisbio Gαs dynamic assay) using a PHERAstar FSX.

EP2 [2] = molecular target: T1, EP2; test: PGE2 release in myometrial cells with/without oxytocin pre-treatment; conditions: for effect of OT pre-treatment on ligand-induced PGE2 release: OT 1 hour, 100 nM, then ligand 6 hours, butaprost 10 μM, PGN9856i 100 nM, FIG. 12
Procedure: Myometrial cells stimulated with either DMSO, butaprost (10 μM), AH13205 (10 μM) or PGN9856i (100 nM) for 6 hours, with/without OT pre-treatment (1 hour, 100 nM). Tissue culture media collected and used for ELISA. PGE2 concentrations normalised to butaprost. Data shown as mean±SEM from at least 3 independent experiments. One-way ANOVA with Dunnett's multiple comparison post-hoc test. One-sample t-test: *p<0.05.
Myometrial cells stimulated with DMSO or PGN9856i (100 nM) for 6 hours, with/without OT pre-treatment (1 hour, 100 nM). Tissue culture media collected and used for ELISA. PGE2 concentrations normalised to vehicle. Data shown as mean±SEM from at least 3 independent experiments. Unpaired t-test: *p<0.05.
Myometrial cells were treated for 6-hours with EP2 agonist (butaprost 10 μM, AH13205 10 μM or PGN9856i 100 nM) or DMSO with/without 1-hour OT (100 nM) pre-treatment. 1 mL media was collected from COX-2 experiments and immediately frozen at −80 degrees Celsius. Samples were defrosted at room temperature and vortexed before quantification of IL-6 concentrations via ELISA as per manufacturer's instructions (Enzo Lifesciences).

EP2 [3] = molecular target: T1, EP2; test: Intracellular cAMP in primary human myocytes from term pregnant non-labouring myometrium; conditions: butaprost 10 μM, AH13205 10 μM, PGN9856i 100 nM, FIG. 5
Procedure: In the myometrium EP2 is an important regulator of parturition. To assess if PGN9856i, butaprost and AH13205 induce similar second messenger profiles in the myometrium as HEK 293 cells, primary human myocytes cultured from term pregnant, non-labouring, myometrium, were treated with each ligand and intracellular cAMP, calcium and PGE2 release was measured.
Myometrial tissue was acquired at St. Mary's hospital, Queen Charlotte and Chelsea hospital and Charing Cross hospital, London. Tissue was obtained from women provided with informed written consent with the approval from the Riverside Research Ethics Committee (RREC 3357, 1997-5089, 19/LO/1657) and experiments were carried out under the committee's guidelines and recommendations. Tissues were obtained from term (38+0-40 weeks gestation) pregnant women undergoing elective caesarean from the upper margin of the incision made at the lower segment of the uterus, before or after the onset of labor. Tissues taken from women in early labour (<3 cm cervical dilation) or late labour (>3 cm cervical dilation) with/without induction with syntocinon, an oxytocin analogue. Tissue was only taken from uncomplicated, singleton pregnancies.
Tissue was stored at 4° C. in phosphate buffered saline until fine dissection with scalpels and dissociation at 37° C. for 1 hour in a sterile-filtered mix of Dulbecco's modified Eagle's medium (DMEM) (Sigma Aldrich)/Ham's F-12 Nutrient Mixture (Sigma Aldrich) and serum-free DMEM (Sigma Aldrich) (1:1 v/v) containing collagenase 1A (Sigma Aldrich)(1 mg/ml), collagenase X (Sigma Aldrich)(1 mg/ml) and bovine serum albumin (Sigma Aldrich) (2 mg/ml). […]
Confluent myometrial cells were treated with/without OT (100 nM) for 1 hour before 3 PBS washes and the addition of […] IBMX (3-isobutyl-1-methylxanthine) in PBS for 5 minutes at 37° C. […] Lysates were normalized to protein concentration determined by Coomassie (Bradford) Protein Assay Kit and analysed as per manufacturers' protocol (Cisbio Gαs dynamic assay) using a PHERAstar FSX.

human FLAG-EP2 = molecular target: T2, human FLAG-EP2 (Homo sapiens, UniProt P43116); test: PGE2 release by ELISA in HEK 293 cells stably expressing EP2; conditions: HEK 293 EP2 cells; 6 hours; butaprost 10 μM, AH13205 10 μM, PGN9856i 100 nM; FIG. 4
T2 construct: FLAG; expressed in transfected cells
Procedure: COX-2 is an inflammatory mediator that drives PGE2 production. The inventors had previously shown EP2-dependent COX-2 release to be downstream of Ca2+ release in primary human myometrium and that 6-hour agonist treatment is necessary for increasing COX-2 levels and PGE2 secretion (Kandola et al, 2014). HEK 293 cells stably expressing human FLAG-EP2 were stimulated for 6 hours with an EP2 agonist (butaprost 10 μM, AH13205 10 μM or PGN9856i 100 nM) or DMSO. 1 mL media was collected from COX-2 experiments and immediately frozen at −80 degrees Celsius. […]

human FLAG-tagged EP2 = molecular target: T3, human FLAG-tagged EP2 (Homo sapiens, UniProt P43116); test: cAMP induction in HEK 293 cells stably expressing EP2 (Gαs readout); conditions: for cAMP efficacy at the maximal dose of each ligand: HEK 293 EP2 cells, 5 minutes of stimulation, no significant difference between ligands, FIG. 2
T3 construct: FLAG; expressed in transfected cells
Procedure: EP2 is a dually coupled GPCR capable of activating downstream signalling pathways via Gαs (anti-labour inducing) and Gαq/11 (pro-labour inducing).
HEK 293 cells were maintained in DMEM (Dulbecco's Modified Eagle Medium) containing 10% fetal bovine serum and 100 μ/ml penicillin-streptomycin, and cultured in 75 cm flasks at 37° C. in 95% air and 5% CO2. Cells at 95% confluency were passaged using 0.25% trypsin with 0.02% EDTA in phosphate-buffered saline (PBS).
as §1

T1 sequence (P43116 whole entry): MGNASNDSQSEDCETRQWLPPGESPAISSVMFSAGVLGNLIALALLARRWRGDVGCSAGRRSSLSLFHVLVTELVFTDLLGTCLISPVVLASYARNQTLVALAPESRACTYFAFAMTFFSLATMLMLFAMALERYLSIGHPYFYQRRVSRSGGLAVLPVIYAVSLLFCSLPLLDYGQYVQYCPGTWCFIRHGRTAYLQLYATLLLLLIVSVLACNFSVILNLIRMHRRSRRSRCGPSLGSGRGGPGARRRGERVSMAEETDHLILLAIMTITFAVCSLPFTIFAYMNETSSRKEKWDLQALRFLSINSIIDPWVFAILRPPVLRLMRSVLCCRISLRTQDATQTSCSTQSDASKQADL
T3 sequence (P43116 whole entry): as above
T2 sequence (P43116 whole entry): as above

Row | Compound | effect of OTR activation on ligand's ability to increase intracellular cAMP (EP2 [1]) | effect of OT pre-treatment on ligand-induced PGE2 release (EP2 [2]) | release of intracellular cAMP (EP2 [3]) | PGE2 levels (human FLAG-EP2) | cAMP efficacy at the maximal dose of each ligand (human FLAG-tagged EP2) | effect on OT-mediated PGE2 release (EP2 [2]; myometrial cells treated with OT (100 nM, 1 hour), then PGN9856i 100 nM for 6 hours, FIG. 13) | EC50 for EP2 agonist-mediated induction of cAMP (relative potency) (human FLAG-tagged EP2; HEK 293 cells stably expressing human FLAG-tagged EP2, dose-response curves, FIG. 1)
1 | CCCC1([C@H](O)C/C=C/[C@H]2[C@H](O)CC(=O)[C@@H]2CCCCCCC(=O)OC)CCC1 [butaprost] | significantly reduced | significantly increased by OT | able to elicit release of intracellular cAMP | efficacious activators of the pathway | equally efficacious | – | –
2 | CC(C)OC(=O)COc1cccc(NC(=O)c2cc(-c3cccc(F)c3)ccc2F)c1 [PGN9856i, propan-2-yl 2-(3-{3′,4-difluoro-[1,1′-biphenyl]-3-amido}phenoxy)acetate] | significantly reduced | unchanged by OT pre-treatment | able to elicit release of intracellular cAMP | unable to increase PGE2 levels over basal levels | equally efficacious | significantly reduce OT-mediated PGE2 release | greatest potency, by three orders of magnitude
